# Values quoted from earlier work, collected in PMC6207715, “Determination of extended substrate specificity of the MALT1 as a strategy for the design of potent substrates and activity-based probes” (Scientific Reports, 2018).
# Assays:
# Conditions in all cases: cited from earlier work
# caspase -9 = system: caspase -9
# Source text: (§1) Z-VRPR-FMK, which was originally designed as a plant metacaspase inhibitor[3], is the most frequently used MALT1 inhibitor and binds covalently to the MALT1 active site. Mepazine is another inhibitor of MALT1, but functions in a noncovalent and reversible manner, limiting its usefulness in studying the enzyme. […] Hachmann et al. described the first tetrapeptidic MALT1-activity-based probe, which was characterized by medium potency (kobs/I = 9, 300 M^−1s^−1)[2 ...
# caspase -8 = system: caspase -8
# Source text: as §1
# MALT1 = target: T1, MALT1 (Homo sapiens, UniProt Q9UDY8)
# T1 sequence (Q9UDY8 1-824): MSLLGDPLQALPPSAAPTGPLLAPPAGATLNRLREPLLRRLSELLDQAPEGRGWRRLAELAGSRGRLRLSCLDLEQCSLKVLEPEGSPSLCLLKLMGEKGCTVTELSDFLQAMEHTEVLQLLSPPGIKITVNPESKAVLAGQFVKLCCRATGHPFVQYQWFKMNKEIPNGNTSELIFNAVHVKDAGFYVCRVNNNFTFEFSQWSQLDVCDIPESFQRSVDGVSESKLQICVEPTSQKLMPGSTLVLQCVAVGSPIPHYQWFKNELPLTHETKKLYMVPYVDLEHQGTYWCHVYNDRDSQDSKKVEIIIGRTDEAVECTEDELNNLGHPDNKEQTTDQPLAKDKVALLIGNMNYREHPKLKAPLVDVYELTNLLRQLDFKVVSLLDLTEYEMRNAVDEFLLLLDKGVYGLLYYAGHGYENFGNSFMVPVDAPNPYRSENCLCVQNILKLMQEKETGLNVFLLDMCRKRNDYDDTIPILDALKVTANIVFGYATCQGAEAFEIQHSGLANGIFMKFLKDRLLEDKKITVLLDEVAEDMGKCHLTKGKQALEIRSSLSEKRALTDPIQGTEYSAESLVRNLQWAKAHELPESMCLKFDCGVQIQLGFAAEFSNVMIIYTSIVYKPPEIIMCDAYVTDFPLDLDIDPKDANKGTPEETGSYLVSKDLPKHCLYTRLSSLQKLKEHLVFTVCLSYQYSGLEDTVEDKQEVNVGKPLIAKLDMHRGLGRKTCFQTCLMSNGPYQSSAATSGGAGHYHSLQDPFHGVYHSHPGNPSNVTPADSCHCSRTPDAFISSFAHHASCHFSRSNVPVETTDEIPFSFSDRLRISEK
# Source text: as §1
# caspase -3 = system: caspase -3
# Source text: as §1
smiles,measurement,setting,value
COCCOc1nc(-c2ccc(Cl)c(Cl)c2)n(-c2ccc(NC(=O)CCl)cc2)n1 [MI-2],activity toward caspase -9,caspase -9,exhibits activity
same,activity toward caspase -8,caspase -8,exhibits activity
same,IC50,MALT1,5.84 µM
same,activity toward caspase -3,caspase -3,exhibits activity
